Measurements reported in US5719135A, “Substituted 3-arylidene-7-azaoxindole compounds and process for their preparation” (Pharmacia S.p.A., priority 1994, dated 1998).
pIC50: −log10 of the molar value.

How the values were obtained:
K562 cells = test: K562 Cell Growth Inhibition Assay; type: cell-based; settings: human chronic myeloid leukemia K562 cells, 72 h, 10000/well
Experimental: K562 Cell Growth Inhibition Assay
K562 cells, a human myelogenous leukemia cell line, were seeded into a 24 wells tissue culture plate (Falcon 3047) (10000/well) in the presence of increasing concentrations of the compounds. After 72 h, cells were harvested and were counted using a cell counter (Coulter Counter-ZM). The percent of inhibition was evaluated in respect to the untreated control cells.
(§1) The inhibitory activity data for a representative group of compounds according to the present invention, obtained both in the in-vitro p45 v-abl kinase assay and in the […] human chronic myeloid leukemia K562 cell growth inhibition assay described above, are set out in the following Table I.

[1] = target: p45 v-abl tyrosine kinase; test: p45 v-abl Kinase Assay; type: biochemical, Abelson murine leukemia virus; settings: in-vitro; (Val^5)-Angiotensin II peptide 2 mM, ATP 50 μM, pH 8.0, 30° C.
Experimental: p45 v-abl Kinase Purification
The enzyme used in our tests was the p45 v-abl tyrosine kinase which represents the catalytic domain of the Abelson tyrosine kinase (isolated form the Abelson murine leukemia virus). The p45 v-abl kinase was produced and isolated as described by Wang at al. in J. Biol. Chem. 260, 64 (1985) and by Ferguson et al. in J. Biol. Chem. 260, 3652 (1985) and in Biochem. J. 257, 321 (1989).
(Val^5)-Angiotensin II phosphorylation was performed by incubation with 40 ng of purified abl-kinase and (γ^32 -p)ATP, in 50 μl of buffer containing Tris-Hcl 25 mM, pH 8.0. MgCl2 10 mM and dithiothreitol 0.1 mM (kinase buffer). The reaction mixture was incubated for the indicated time at 30° C. and the reaction stopped by adding 50 μl of 5% trichloroacetic acid. After a brief incubation on ice, tubes were centrifuged. The supernatants were spotted on phosphocellulose paper squares (Whatman P-81) and washed extensively in acetic acid. The radioactivity bound to dried phosphocellulose squares was measured in a liquid scintillation counter. IC50 values were calculated from triplicated determinations of each experimental point. Each inhibitor was tested at concentrations ranging from […] in the presence of fixed concentrations of peptide (2 mM) and ATP (50 μM.
as §1

O=C1Nc2ncccc2C1=Cc1c[nH]c2ncccc12 [3-[(7-azaindol-3-yl)methylene]-7-azaoxindole] showed a pIC50 (K562 cells) of 5.41.

Work on O=C1Nc2ncccc2C1=Cc1cc(O)c2c(c1O)CCCC2 [3-[(1,4-dihydroxy-5,6,7,8-tetrahydronaphth-2-yl)methylene]-7-azaoxindole] yielded a pIC50 [1] of 5.67 and a pIC50 (K562 cells) of 5.63.

With COc1ccc2[nH]cc(C=C3C(=O)Nc4ncccc43)c2c1 [3-[(5-methoxy-3-indolyl)methylene]-7-azaoxindole] the pIC50 [1] was 7.52 and the pIC50 (K562 cells) was 5.49.

With Cc1[nH]c2ccccc2c1C=C1C(=O)Nc2ncccc21 [3-[(2-methyl-3-indolyl)methylene]-7-azaoxindole] the pIC50 [1] was 7.40 and the pIC50 (K562 cells) was 5.58.
